The assay deals with human PDE10A (Homo sapiens (Human), UniProt Q9Y233). The assay can be described thus: human PDE10A full length Scintillation Proximity Assay (SPA). The following applies: 50 nM cGMP and 50 nM [3H]-cGMP, 20 minutes at room temperature; read-out: PDE10A inhibition IC50. Format: biochemical. The procedure, abridged: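 Full-length enzyme incubated with compounds; reaction started with cGMP plus [^3H]-cGMP substrate and run 20 min at room temperature. Stopped with yttrium silicate SPA beads in 18 mM zinc sulphate, 1 h shaking, then scintillation counting; background from enzyme-free wells.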
Chain of human PDE10A (Q9Y233 other isoform, or with tags, fused parts or gaps): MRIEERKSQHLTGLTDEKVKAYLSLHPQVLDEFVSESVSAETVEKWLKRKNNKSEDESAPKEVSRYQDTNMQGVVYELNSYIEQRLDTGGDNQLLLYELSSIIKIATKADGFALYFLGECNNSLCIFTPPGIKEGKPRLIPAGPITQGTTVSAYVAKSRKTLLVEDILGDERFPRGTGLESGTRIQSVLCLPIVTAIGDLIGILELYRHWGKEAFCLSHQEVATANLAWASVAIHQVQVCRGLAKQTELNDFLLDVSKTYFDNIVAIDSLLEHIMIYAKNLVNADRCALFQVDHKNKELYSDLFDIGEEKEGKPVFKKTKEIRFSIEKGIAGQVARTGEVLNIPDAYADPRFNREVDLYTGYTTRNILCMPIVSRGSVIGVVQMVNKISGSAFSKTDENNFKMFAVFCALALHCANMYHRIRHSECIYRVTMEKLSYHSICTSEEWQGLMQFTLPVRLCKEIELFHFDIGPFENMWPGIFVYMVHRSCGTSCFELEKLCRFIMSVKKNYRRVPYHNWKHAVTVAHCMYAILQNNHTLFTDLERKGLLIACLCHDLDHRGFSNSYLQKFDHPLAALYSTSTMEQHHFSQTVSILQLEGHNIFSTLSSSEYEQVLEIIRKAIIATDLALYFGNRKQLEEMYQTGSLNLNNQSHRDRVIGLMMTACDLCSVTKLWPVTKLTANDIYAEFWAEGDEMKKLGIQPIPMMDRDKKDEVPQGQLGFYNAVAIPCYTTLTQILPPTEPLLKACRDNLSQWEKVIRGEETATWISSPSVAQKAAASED

As a reminder, the IC50 is the concentration at which inhibition is half-maximal.

Take `CNC(=O)c1c(NC(=O)c2nc(N3CCN(C)CC3)cnc2Nc2cncnc2)cnn1C` [Example 333, 4-Methyl-5′-(pyrimidin-5-ylamino)-3,4,5,6-tetrahydro-2H-[1,2]bipyrazinyl-6′-carboxylic acid (1-methyl-5-methylcarbamoyl-1H-pyrazol-4-yl)-amide]: the IC50 is 691 nM.

`CCc1ccc(NC(=O)c2nc(C3CC3)cnc2Nc2cncnc2)c(C(=O)NCC(C)(C)O)n1` [Example 181, 6-Cyclopropyl-3-(pyrimidin-5-ylamino)-pyrazine-2-carboxylic acid [6-ethyl-2-(2-hydroxy-2-methyl-propylcarbamoyl)-pyridin-3-yl]-amide]: the IC50 turned out to be 0.4 nM.

In the case of `CC(CO)NC(=O)c1ccncc1NC(=O)c1nc(C2CC2)ccc1Nc1cncnc1` (stereo not drawn) [Example 66, 6-Cyclopropyl-3-(pyrimidin-5-ylamino)-pyridine-2-carboxylic acid [4-(2-hydroxy-1-methyl-ethylcarbamoyl)-pyridin-3-yl]-amide], the half-inhibitory concentration (IC50) amounted to 47.8 nM.

Turning to `CCCCN(C)C(=O)c1c(NC(=O)c2nc(C3CC3)cnc2Nc2cncnc2)cnn1C` [Example 223, 6-Cyclopropyl-3-(pyrimidin-5-ylamino)-pyrazine-2-carboxylic acid [5-(butyl-methyl-carbamoyl)-1-methyl-1H-pyrazol-4-yl]-amide], the IC50 turned out to be 18.4 nM.

On to `CC(C)(O)CNC(=O)c1cc(C(F)(F)F)ccc1NC(=O)c1nc(C2CC2)cnc1Nc1cncnc1` [Example 295, 6-Cyclopropyl-3-(pyrimidin-5-ylamino)-pyrazine-2-carboxylic acid [2-(2-hydroxy-2-methyl-propylcarbamoyl)-4-trifluoromethyl-phenyl]-amide], for which the concentration for half-maximal inhibition (IC50) amounted to 2.3 nM.

On to `CNC(=O)c1c(NC(=O)c2nc(C3CC3)cnc2Nc2cncnc2)cnn1CC(C)C` [Example 137, 6-Cyclopropyl-3-(pyrimidin-5-ylamino)-pyrazine-2-carboxylic acid (1-isobutyl-5-methylcarbamoyl-1H-pyrazol-4-yl)-amide], for which the IC50 came out at 58.7 nM.

As to `CNC(=O)c1c(NC(=O)c2nc(OC)cnc2Nc2cncnc2)cnn1C` [Example 258, 6-Methoxy-3-(pyrimidin-5-ylamino)-pyrazine-2-carboxylic acid (1-methyl-5-methylcarbamoyl-1H-pyrazol-4-yl)-amide], the IC50 was determined as 176 nM.

On to `CN(C)C(=O)c1ccc(F)c(F)c1NC(=O)c1nc(C2CC2)cnc1Nc1cncnc1` [Example 325, 6-Cyclopropyl-3-(pyrimidin-5-ylamino)-pyrazine-2-carboxylic acid (6-dimethylcarbamoyl-2,3-difluoro-phenyl)-amide], for which the IC50 came to 335 nM.

With `O=C(Nc1cncnc1C(=O)N1CCCCC1)c1nc(C2CC2)cnc1Nc1cncnc1` [Example 212, 6-Cyclopropyl-3-(pyrimidin-5-ylamino)-pyrazine-2-carboxylic acid [4-(piperidine-1-carbonyl)-pyrimidin-5-yl]-amide], the IC50 worked out at 81.2 nM.

`O=C(Nc1cccnc1C(=O)N1CCC1)c1nc(C2CC2)cnc1Nc1cncnc1` [Example 194, 6-Cyclopropyl-3-(pyrimidin-5-ylamino)-pyrazine-2-carboxylic acid [2-(azetidine-1-carbonyl)-pyridin-3-yl]-amide]: the IC50 turned out to be 5.5 nM.

Take `CCn1cc(NC(=O)c2nc(C3CC3)cnc2Nc2cncnc2)c(C(=O)NCC2CCCO2)n1` (stereo not drawn) [Example 108, 6-Cyclopropyl-N-(1-ethyl-3-((tetrahydrofuran-2-yl)methylcarbamoyl)-1H-pyrazol-4-yl)-3-(pyrimidin-5-ylamino)pyrazine-2-carboxamide]: the half-inhibitory concentration (IC50) was 39.7 nM.

For `CN(CC(C)(C)O)C(=O)c1c(NC(=O)c2nc(C3CC3)cnc2Nc2cncnc2)cnn1C` [Example 153, 6-Cyclopropyl-3-(pyrimidin-5-ylamino)-pyrazine-2-carboxylic acid {5-[(2-hydroxy-2-methyl-propyl)-methyl-carbamoyl]-1-methyl-1H-pyrazol-4-yl}-amide], the IC50 was 16.1 nM.

Consider `CNC(=O)COc1ccc(NC(=O)c2nc(C3CC3)cnc2Nc2cncnc2)c(C(=O)NC)c1` [Example 322, 6-Cyclopropyl-3-(pyrimidin-5-ylamino)-pyrazine-2-carboxylic acid (2-methylcarbamoyl-4-methylcarbamoylmethoxy-phenyl)-amide], for which the IC50 turned out to be 1.7 nM.

For `Cn1cc(NC(=O)c2nc(C3CC3)ccc2Nc2cncnc2)c(C(=O)N2CCC(F)(F)C2)n1` [Example 36, 6-Cyclopropyl-3-(pyrimidin-5-ylamino)-pyridine-2-carboxylic acid [3-(3,3-difluoro-pyrrolidine-1-carbonyl)-1-methyl-1H-pyrazol-4-yl]-amide], the IC50 stood at 3.2 nM.

With `CNC(=O)c1ncncc1NC(=O)c1nc(C2CC2)cnc1Nc1cncnc1` [Example 218, 5-{[6-Cyclopropyl-3-(pyrimidin-5-ylamino)-pyrazine-2-carbonyl]-amino}-pyrimidine-4-carboxylic acid methylamide], the IC50 was determined as 5.2 nM.

Take `CC(C)(O)CNC(=O)c1ccncc1NC(=O)c1nc(C2CC2)cnc1Nc1cncnc1` [Example 105, 6-Cyclopropyl-3-(pyrimidin-5-ylamino)-pyrazine-2-carboxylic acid [4-(2-hydroxy-2-methyl-propylcarbamoyl)-pyridin-3-yl]-amide]: the 50% inhibitory concentration (IC50) was determined as 1.1 nM.

As for `CNC(=O)c1c(NC(=O)c2nc(C3CC3)cnc2Nc2cncnc2)cnn1CC1CCCO1` (stereo not drawn) [Example 243, 6-Cyclopropyl-3-(pyrimidin-5-ylamino)-pyrazine-2-carboxylic acid [5-methylcarbamoyl-1-(tetrahydro-furan-2-ylmethyl)-1H-pyrazol-4-yl]-amide], the IC50 was found to be 1.4 nM.

For `Cn1ncc(NC(=O)c2nc(C3CC3)cnc2Nc2cncnc2)c1C(=O)NC1CCN(C(=O)OC(C)(C)C)C1` (stereo not drawn) [Example 236, 3-[(4-{[6-Cyclopropyl-3-(pyrimidin-5-ylamino)-pyrazine-2-carbonyl]-amino}-2-methyl-2H-pyrazole-3-carbonyl)-amino]-pyrrolidine-1-carboxylic acid tert-butyl ester], the IC50 was 6.8 nM.

On to `CNC(=O)c1c(NC(=O)c2nc(C3CC3)cnc2Nc2cncnc2)ccc(C)c1C` [Example 263, 6-Cyclopropyl-3-(pyrimidin-5-ylamino)-pyrazine-2-carboxylic acid (3,4-dimethyl-2-methylcarbamoyl-phenyl)-amide], for which the IC50 stood at 54.3 nM.

On to `CNC(=O)c1cc(C#N)ccc1NC(=O)c1nc(C2CC2)cnc1Nc1cncnc1` [Example 261, 6-Cyclopropyl-3-(pyrimidin-5-ylamino)-pyrazine-2-carboxylic acid (4-cyano-2-methylcarbamoyl-phenyl)-amide], for which the half-maximal inhibitory concentration (IC50) came to 3.5 nM.

For `CC(C)(O)CNC(=O)c1cc(Cl)ncc1NC(=O)c1nc(C2CC2)cnc1Nc1cncnc1` [Example 260, 6-Cyclopropyl-3-(pyrimidin-5-ylamino)-pyrazine-2-carboxylic acid [6-chloro-4-(2-hydroxy-2-methyl-propylcarbamoyl)-pyridin-3-yl]-amide], the IC50 came out at 1.6 nM.

With `Cn1ncc(NC(=O)c2nc(C3CC3)cnc2Nc2cncnc2)c1C(=O)N1CC(F)(F)C1` [Example 143, 6-Cyclopropyl-3-(pyrimidin-5-ylamino)-pyrazine-2-carboxylic acid [5-(3,3-difluoro-azetidine-1-carbonyl)-1-methyl-1H-pyrazol-4-yl]-amide], the IC50 was determined as 23.3 nM.

As for `CC(C)(O)CNC(=O)c1cc(F)ccc1NC(=O)c1nc(C2CC2)cnc1Nc1cncnc1` [Example 306, 6-Cyclopropyl-3-(pyrimidin-5-ylamino)-pyrazine-2-carboxylic acid [4-fluoro-2-(2-hydroxy-2-methyl-propylcarbamoyl)-phenyl]-amide], the IC50 was determined as 1.4 nM.

As for `CNC(=O)c1ccncc1NC(=O)c1nc(C2CC2)cnc1Nc1cncnc1` [Example 124, 6-Cyclopropyl-3-(pyrimidin-5-ylamino)-pyrazine-2-carboxylic acid (4-methylcarbamoyl-pyridin-3-yl)-amide], the IC50 came out at 2.1 nM.

Take `CCN(CCO)C(=O)c1ncccc1NC(=O)c1nc(C2CC2)cnc1Nc1cncnc1` [Example 270, 6-Cyclopropyl-3-(pyrimidin-5-ylamino)-pyrazine-2-carboxylic acid {2-[ethyl-(2-hydroxy-ethyl)-carbamoyl]-pyridin-3-yl}-amide]: the IC50 was 53.3 nM.

Consider `O=C(Nc1cc(F)cc(F)c1C(=O)N1CCC1)c1nc(C2CC2)cnc1Nc1cncnc1` [Example 323, 6-Cyclopropyl-3-(pyrimidin-5-ylamino)-pyrazine-2-carboxylic acid [2-(azetidine-1-carbonyl)-3,5-difluoro-phenyl]-amide], for which the concentration for half-maximal inhibition (IC50) is 35.9 nM.

As to `CNC(=O)c1ccccc1NC(=O)c1nc(C2CC2)ccc1Nc1cncnc1` [Example 29, 6-Cyclopropyl-3-(pyrimidin-5-ylamino)-pyridine-2-carboxylic acid (2-methylcarbamoyl-phenyl)-amide], the IC50 came to 1.3 nM.

On to `CNC(=O)c1nc(COC)ccc1NC(=O)c1nc(C2CC2)cnc1Nc1cncnc1` [Example 209, 6-Cyclopropyl-3-(pyrimidin-5-ylamino)-pyrazine-2-carboxylic acid (6-methoxymethyl-2-methylcarbamoyl-pyridin-3-yl)-amide], for which the IC50 was 3.7 nM.

Take `CC(C)(O)CNC(=O)c1cnccc1NC(=O)c1nc(C2CC2)cnc1Nc1cncnc1` [Example 120, 6-Cyclopropyl-3-(pyrimidin-5-ylamino)-pyrazine-2-carboxylic acid [3-(2-hydroxy-2-methyl-propylcarbamoyl)-pyridin-4-yl]-amide]: the half-inhibitory concentration (IC50) is 0.4 nM.

Turning to `CC1(NC(=O)c2ccncc2NC(=O)c2nc(C3CC3)cnc2Nc2cncnc2)COC1` [Example 121, 6-Cyclopropyl-3-(pyrimidin-5-ylamino)-pyrazine-2-carboxylic acid [4-(3-methyl-oxetan-3-ylcarbamoyl)-pyridin-3-yl]-amide], the IC50 is 5.8 nM.

For the origin of these results see US8703768B2, “Nitrogen containing heteroaryl compounds” (Hoffmann-La Roche Inc., priority 2010, dated 2014).
